According to patent US20250295626A1, “CARBON MONOXIDE-RELEASING MOLECULE (CORM) OR COMPOSITION THEREOF FOR USE IN THE TREATMENT OR THE PREVENTION OF AN INTESTINAL DYSBIOSIS IN A SUBJECT” (priority 2022, published 2025):

Experiments:
Assay type in all cases: in vivo, C57BL6 mice
[1] = Levels of blood carbon monoxide hemoglobin (COHb) after oral administration
Description: The levels of COHb (carbon monoxide bound to hemoglobin) were measured at different time points after oral administration of CORM-401 in two groups of eight-week-old male C57BL6 mice that were fed either a standard diet (SD) or a high fat diet (HFD) for 14 weeks (n=9-10 per group). CORM-401 was freshly prepared in phosphate buffer solution (PBS) and administered orally at a dose of 30 mg/kg=90 μmoles/kg (n=6) and COHb in blood was measured after 1, 6, 24 and 48 hours. • b) Results

[2] = CO accumulation in intestinal tissues after oral administration (hemoCD1 quantification); details: oral 30 mg/kg
Description: Eight-week-old male C57BL6 mice weighing approximately 25 g were treated with an oral administration of either CORM-401 (30 mg/kg) or PBS (control group) and then sacrificed after 1, 3, 6, 24 and 48 hours (n=6 per time point). Organs were collected to determine the levels of CO accumulation in different intestinal tissues following the two treatments. The body compartments where the intestinal microbiota is most likely to be present such as the caecum, caecum content, colon and faeces were analyzed. CO accumulation was quantified using the CO sensitive scavenger hemoCD1 as previously reported by the inventors such as in Mao et al, 2021 [10]; Minegishi et al, 2017 [11]. Briefly, fifty milligrams of tissue were homogenized in 0.5 ml PBS in the presence of hemoCD1 (2-10 μM) and sodium dithionite (1 mg). Tissue homogenates were first sonicated, then samples were centrifuged, and the supernatants filtered before measurements by UV-VIS absorption spectroscopy. The concentration of CO was calculated from the absorbances at 422 and 434 nm using a reported equation (Kitagishi et al, 2010; Braud et al 2018 [13]). • b) Results

[3] = system: intestinal microbiota of HFD mice; assay: Abundance of bacterial species of intestinal microbiota in faeces (shotgun metagenomic/metatranscriptomic sequencing)
Description: Eight-week-old male C57BL6 mice weighing approximately 25 g were fed either a standard diet (SD), high fat diet (HFD) or HFD+CORM-401 for 14 weeks (n=9-10 per group). CORM-401 was prepared freshly in phosphate buffer solution (PBS) and administered orally to mice three times a week each time at a dose of (30 mg/kg=90 μmoles/kg) during the entire HFD regime. Faeces from the three groups of mice were then collected after the 14 week HFD regime for microbiota analysis before mice were sacrificed.
The stool samples DNA and RNA (n=3 per group) were extracted and the sequencing was carried out by a shotgun metagenomic/metatranscriptomic technique as previously described. Briefly, a pre-extraction step combining mechanical, enzymatic and chemical procedures was performed prior to extraction by means of a QIAsymphony PowerFecal Pro DNA Kit (QIAGEN). The extracts were used for DNA/RNA library preparation and determination of pair-end sequences using a NextSeq500 Instrument (Illumina). Fastq files were analysed by an in-house software MetaMIC (v2.2.0). The data were filtered based on quality (phred score) and the sequences were mapped against several custom databases, counted and collected in a separate Fastq file. Sequence counts were made for each bacterial species and compared to the environmental control. The number of sequences for each species was used to determine their relative abundance in each group of mice. • b) Results

[4] = HFD + CORM, faeces after 14 weeks, 30 mg/kg orally three times a week, average of 3
[5] = HFD mice treated 14 weeks, 30 mg/kg orally three times a week

In the case of `CN(CC(=O)O)C(=S)[S-].[C-]#[O+].[C-]#[O+].[C-]#[O+].[C-]#[O+].[Mn]` [CORM-401], the “COHb levels in blood” value ([1]; 1 hour after oral administration of 30 mg/kg, both SD-fed and HFD-fed mice) was “significantly increased”, the “Period over which blood COHb gradually decreased to baseline levels” value ([1]; oral 30 mg/kg, SD-fed and HFD-fed mice) was 48 h and the “Time at which the maximum CO content was reached” value ([2]; all compartments (caecum, caecum content, colon, faeces)) was 6 h. For the same compound, the “Time after which CO content returned to basal levels” value ([2]; all compartments) was 48 h, the “CO accumulation (time-dependent)” value ([2]; caecum tissue, caecum content, colon and faeces, vs PBS control) was “significantly accumulated” and the “Abundance of Adlercreutzia equolifaciens” value [3, 4] was 4445 number of sequences. For the same compound, the “Abundance of Aerococcus viridans” value [3, 4] was 1650 number of sequences, the “Abundance of Akkermansia muciniphila” value [3, 4] was 120300 number of sequences and the “Abundance of Alistipes finegoldii” value [3, 4] was 6727 number of sequences. The “Abundance of Alistipes shahii” value [3, 4] was 9490 number of sequences, the “Abundance of Bacteroides caecimuris” value [3, 4] was 14812 number of sequences and the “Abundance of Bacteroides cellulosilyticus” value [3, 4] was 246 number of sequences. For the same compound, the “Abundance of Bacteroides dorei” value [3, 4] was 3093 number of sequences, the “Abundance of Bacteroides fragilis” value [3, 4] was 3651 number of sequences and the “Abundance of Bacteroides xylanisolvens” value [3, 4] was 1151 number of sequences. For the same compound, the “Abundance of Barnesiella viscericola” value [3, 4] was 350 number of sequences, the “Abundance of Blautia sp. YL58” value [3, 4] was 934 number of sequences and the “Abundance of Burkholderiales bacterium YL45” value [3, 4] was 159 number of sequences. The “Abundance of Carnobacterium divergens” value [3, 4] was 1726 number of sequences, the “Abundance of Clostridioides difficile” value [3, 4] was 1101 number of sequences and the “Abundance of Clostridium bolteae” value [3, 4] was 3559 number of sequences. For the same compound, the “Abundance of Enterococcus faecalis” value [3, 4] was 4655 number of sequences, the “Abundance of Enterococcus faecium” value [3, 4] was 7750 number of sequences and the “Abundance of Erysipelotrichaceae bacterium I46” value [3, 4] was 1788 number of sequences. The “Abundance of Faecalibacterium prausnitzii” value [3, 4] was 3622 number of sequences, the “Abundance of Faecalibaculum rodentium” value [3, 4] was 120296 number of sequences and the “Abundance of Faecalitalea cylindroides” value [3, 4] was 1039 number of sequences. The “Abundance of Flavonifractor plautii” value [3, 4] was 7720 number of sequences, the “Abundance of Intestinimonas butyriciproducens” value [3, 4] was 2426 number of sequences and the “Abundance of Lachnoclostridium phocaeense” value [3, 4] was 2366 number of sequences. The “Abundance of Lachnoclostridium sp. YL32” value [3, 4] was 14254 number of sequences, the “Abundance of Lactobacillus acidipiscis” value [3, 4] was 630 number of sequences and the “Abundance of Lactobacillus agilis” value [3, 4] was 2223 number of sequences. The “Abundance of Lactobacillus animalis” value [3, 4] was 1355 number of sequences, the “Abundance of Lactobacillus fermentum” value [3, 4] was 10256 number of sequences and the “Abundance of Lactobacillus gallinarum” value [3, 4] was 928 number of sequences. The “Abundance of Lactobacillus gasseri” value [3, 4] was 61826 number of sequences, the “Abundance of Lactobacillus helveticus” value [3, 4] was 2955 number of sequences and the “Abundance of Lactobacillus johnsonii” value [3, 4] was 162300 number of sequences. The “Abundance of Lactobacillus murinus” value [3, 4] was 4440 number of sequences, the “Abundance of Lactobacillus plantarum” value [3, 4] was 1011 number of sequences and the “Abundance of Lactobacillus reuteri” value [3, 4] was 339700 number of sequences. For the same compound, the “Abundance of Lactobacillus ruminis” value [3, 4] was 2160 number of sequences, the “Abundance of Lactobacillus salivarius” value [3, 4] was 3546 number of sequences and the “Abundance of Lactococcus garvieae” value [3, 4] was 3953 number of sequences. The “Abundance of Lactococcus lactis” value [3, 4] was 642300 number of sequences, the “Abundance of Lactococcus piscium” value [3, 4] was 4133 number of sequences and the “Abundance of Libanicoccus massiliensis” value [3, 4] was 4193 number of sequences. For the same compound, the “Abundance of Listeria monocytogenes” value [3, 4] was 2783 number of sequences, the “Abundance of Mordavella sp. Marseille-P3756” value [3, 4] was 1240 number of sequences and the “Abundance of Muribaculum intestinale” value [3, 4] was 21500 number of sequences. The “Abundance of Olsenella sp. Marseille-P2300” value [3, 4] was 4915 number of sequences, the “Abundance of Olsenella uli” value [3, 4] was 1483 number of sequences and the “Abundance of Olsenella umbonata” value [3, 4] was 1620 number of sequences. The “Abundance of Oscillibacter valericigenes” value [3, 4] was 1053 number of sequences, the “Abundance of Parabacteroides goldsteinii” value [3, 4] was 43 number of sequences and the “Abundance of Romboutsia ilealis” value [3, 4] was 21923 number of sequences. The “Abundance of Roseburia intestinalis” value [3, 4] was 1190 number of sequences, the “Abundance of Ruminiclostridium sp. KB18” value [3, 4] was 18969 number of sequences and the “Abundance of Streptococcus thermophilus” value [3, 4] was 7718 number of sequences. For the same compound, the “Abundance of uncultured Firmicutes bacterium” value [3, 4] was 1355 number of sequences, the “Change in the abundance of Alistipes fingoldii” value [3, 5] was “marked increase” and the “Change in the abundance of Alistipes shahii” value [3, 5] was “marked increase”. For the same compound, the “Change in the abundance of Olsenella uli” value [3, 5] was “marked increase”, the “Change in the abundance of Olsenella umbonata” value [3, 5] was “marked increase” and the “Change in the abundance of Romboutsia ilealis” value [3, 5] was “decrease”. For the same compound, the “Rank of Akkermansia muciniphila in the intestinal bacteria profile” value [3, 5] was “among the most dominant species” and the “Overall effect on the intestinal microbiota” value ([3]; HFD mice, oral administration) was “reshapes the intestinal microbiota HFD mice towards a healthy phenotype”.
